Test results published in patent publication US20250188068A1, “AMIDO CYCLOPROPYL DERIVATIVES AS LPA RECEPTOR INHIBITORS” (CHIESI FARMACEUTICI S.P.A., priority 2022, published 2025).

Target: T1, human recombinant LPA1 expressed in CHO cells (Homo sapiens, UniProt Q92633)
T1 construct: expressed in transfected cells; host or cells: CHO cells (CHO-hLPA1 cell line)
Test: FLIPR calcium mobilization assay, LPA1 antagonism in CHO-hLPA1 cells
Assay type: cell-based
Conditions: inhibition of LPA EC80 Ca2+ response, 30 min pre-incubation, range of activity
Description: The effectiveness of compounds of the present invention as LPA1 antagonist can be determined at the human recombinant LPA1 expressed in CHO cells, using a FLIPR assay in 384 well format.
CHO-hLPA1 cell lines are cultured in a humidified incubator at 5% CO2 in DMEM/F-12 (1:1) MIXTURE with 2 mM Glutamax, supplemented with 10% of Foetal Bovine Serum, 1 mM Sodium Pyruvate, 11 mM Hepes and 1× Penicillin/Streptomycin. CHO hLPA1 cells are seeded into black walled clear-bottom 384-well plates (#781091, Greiner Bio-One GmbH) at a density of 7,500 cells per well in 50 μl culture media and grown overnight in a 37° C. humidified CO2-incubator. Serial dilutions (1:3 or 1:4, 11 points CRC) of compounds are performed in 100% DMSO at 200× the final concentration. The compounds are diluted 1:50 prior to the experiment with Assay Buffer (20 mM HEPES, 145 mM NaCl, 5 mM KCl, 5.5 mM glucose, 1 mM MgCl2 and 2 mM CaCl2), pH 7.4 containing 0.01% Pluronic F-127) to obtain a solution corresponding to […] the final concentration in the assay (4×, 2% DMSO). The final concentration of DMSO in the assay will be 0.5% in each well. Medium is removed by aspiration and cells are then incubated with 30 μl of a loading solution containing 5 μM of the cytoplasmic Ca2+ indicator Cal-520 AM in Assay Buffer containing 2.5 mM probenecid for 30 min at 37° C. incubator (cell loading). The loaded cell plates are transferred into the FLIPR instrument and calcium responses are monitored during the on-line addition protocols. For testing of compounds, after the cell loading, 10 μl/well of 4× antagonists' solution was added onto the cells. After 30 min pre-incubation (at 37° C.), 10 μl/well of 5× concentrated LPA EC80 was added and Ca2+ mobilization responses was followed during the on-line addition protocol. Intracellular peak fluorescence values subtracted by baseline fluorescence are exported and analysed to determine IC50 values, respectively. The calcium response is expressed as percentage of the maximal inhibition of the EC80 agonist response.
The raw data obtained in unstimulated controls (DMSO, no LPA) are set as “100% inhibition”, while the raw data obtained in negative controls, i.e. in the absence of compounds and stimulating with LPA EC80, are set as “0% inhibition”.
The raw data (peak height expressed as relative fluorescence units) are normalized and transformed into “percent of inhibition”. Curve fitting and pIC50 (−Log IC50) estimations are carried out using a four-parameter logistic model using XLfit Software.

T1 sequence (Q92633 whole entry): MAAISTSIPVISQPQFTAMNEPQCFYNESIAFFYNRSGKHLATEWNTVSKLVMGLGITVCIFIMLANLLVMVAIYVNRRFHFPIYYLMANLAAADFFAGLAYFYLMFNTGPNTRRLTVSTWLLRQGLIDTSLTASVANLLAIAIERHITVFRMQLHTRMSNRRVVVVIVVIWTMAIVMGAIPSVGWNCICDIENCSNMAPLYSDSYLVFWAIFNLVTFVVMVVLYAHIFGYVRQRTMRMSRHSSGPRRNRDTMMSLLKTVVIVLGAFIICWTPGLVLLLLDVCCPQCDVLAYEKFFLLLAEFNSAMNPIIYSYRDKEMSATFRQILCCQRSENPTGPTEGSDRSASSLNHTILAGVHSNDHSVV

SMILES	IC50 [nM]
Cc1noc(-c2ccc(N(C)C(=O)C3C(C(=O)O)C3(F)F)cc2)c1NC(=O)O[C@H](C)c1ccccc1Cl (single isomer, unassigned; diastereomer 2) [Compound 9]	50 to 100
Cc1noc(-c2ccc(NC(=O)C3C(c4nnn[nH]4)C3(F)F)cc2)c1NC(=O)O[C@H](C)c1ccccc1Cl (mixture of isomers) [Compound 13, (R)-1-(2-chlorophenyl)ethyl (5-(4-(2,2-difluoro-3-(1H-tetrazol-5-yl)cyclopropane-1-carboxamido)phenyl)-3-methylisoxazol-4-yl)carbamate, mix of Trans diastereomers]	< 50
Cc1noc(-c2ccc(NC(=O)C3C(C(=O)O)C3(F)F)cn2)c1NC(=O)O[C@H](C)c1ccccc1Cl (single isomer, unassigned) [Compound 5]	< 50
C[C@@H](OC(=O)Nc1cccn1-c1ccc(NC(=O)[C@@H]2[C@@H](C(=O)O)C2(F)F)cc1)c1ccccc1Cl [Compound 39]	100 to 200
Cc1nc(-c2onc(C)c2NC(=O)O[C@H](C)c2ccccc2Cl)ccc1CNC(=O)C1C(C(=O)O)C1(F)F (mixture of isomers) [Compound 17, 3-(((6-(4-((((R)-1-(2-chlorophenyl)ethoxy)carbonyl)amino)-3-methylisoxazol-5-yl)-2-methylpyridin-3-yl)methyl)carbamoyl)-2,2-difluorocyclopropane-1-carboxylic acid, mix of Trans diastereomers]	< 50
Cc1noc(-c2ccc(NC(=O)[C@@H]3[C@@H](C(=O)O)C3(F)F)cc2)c1COC(=O)N(C)C1CCCC1 (racemic) [Compound 36, 3-((4-(4-(((cyclopentyl(methyl)carbamoyl)oxy)methyl)-3-methylisoxazol-5-yl)phenyl)carbamoyl)-2,2-difluorocyclopropane-1-carboxylic acid, mix of Trans diastereomers]	100 to 200
Cc1noc(-c2ccc(N(C)C(=O)C3C(C(=O)O)C3(F)F)cc2)c1NC(=O)O[C@H](C)c1ccccc1Cl (single isomer, unassigned) [Compound 8]	100 to 200
C[C@@H](OC(=O)Nc1c(-c2ccc(NC(=O)[C@@H]3[C@@H](C(=O)O)C3(F)F)cc2)nnn1C)c1ccccc1Cl [Compound 35, (1S,3S)-3-((4-(5-((((R)-1-(2-chlorophenyl)ethoxy)carbonyl)amino)-1-methyl-1H-1,2,3-triazol-4-yl)phenyl)carbamoyl)-2,2-difluorocyclopropane-1-carboxylic acid]	< 50
Cc1nc(-c2onc(C)c2NC(=O)O[C@H](C)c2ccccc2Cl)ccc1NC(=O)C1C(c2nsc(=O)[nH]2)C1(F)F (stereo partly drawn) [Compound 43, (R)-1-(2-chlorophenyl)ethyl (5-(5-(2,2-difluoro-3-(5-oxo-4,5-dihydro-1,2,4-thiadiazol-3-yl)cyclopropane-1-carboxamido)-6-methylpyridin-2-yl)-3-methylisoxazol-4-yl)carbamate]	< 50
Cc1nc(-c2onc(C)c2CNc2nccc(-c3cccs3)n2)ccc1NC(=O)[C@@H]1[C@@H](C(=O)O)C1(F)F [Compound 24, (1S,3S)-2,2-difluoro-3-((2-methyl-6-(3-methyl-4-(((4-(thiophen-2-yl)pyrimidin-2-yl)amino)methyl)isoxazol-5-yl)pyridin-3-yl)carbamoyl)cyclopropane-1-carboxylic acid]	< 50
Cc1nc(-c2onc(C)c2NC(=O)O[C@H](C)c2ccccc2Cl)ccc1NC(=O)C1C(c2noc(=S)[nH]2)C1(F)F (stereo partly drawn) [Compound 41, (R)-1-(2-chlorophenyl)ethyl (5-(5-(2,2-difluoro-3-(5-thioxo-4,5-dihydro-1,2,4-oxadiazol-3-yl)cyclopropane-1-carboxamido)-6-methylpyridin-2-yl)-3-methylisoxazol-4-yl)carbamate]	< 50
Cc1nc(-c2onc(C)c2NC(=O)O[C@H](C)c2ccccc2Cl)ccc1NC(=O)[C@@H]1[C@@H](c2n[nH]c(=S)n2C)C1(F)F [Compound 44, (R)-1-(2-chlorophenyl)ethyl (5-(5-((1S,3S)-2,2-difluoro-3-(4-methyl-5-thioxo-4,5-dihydro-1H-1,2,4-triazol-3-yl)cyclopropane-1-carboxamido)-6-methylpyridin-2-yl)-3-methylisoxazol-4-yl)carbamate]	50 to 100
Cc1nc(-c2onc(C)c2CNc2nccc(-c3ccsc3)n2)ccc1NC(=O)[C@@H]1[C@@H](C(=O)O)C1(F)F [Compound 21, (1S,3S)-2,2-difluoro-3-((2-methyl-6-(3-methyl-4-(((4-(thiophen-3-yl)pyrimidin-2-yl)amino)methyl)isoxazol-5-yl)pyridin-3-yl)carbamoyl)cyclopropane-1-carboxylic acid]	< 50

Second part, the molecule after the results:

IC50 [nM]	SMILES
< 50	Cc1nc(-c2onc(C)c2CNc2nccc(-c3cccnc3)n2)ccc1NC(=O)[C@@H]1[C@@H](C(=O)O)C1(F)F [Compound 25, (1S,3S)-2,2-difluoro-3-((2-methyl-6-(3-methyl-4-(((4-(pyridin-3-yl)pyrimidin-2-yl)amino)methyl)isoxazol-5-yl)pyridin-3-yl)carbamoyl)cyclopropane-1-carboxylic acid]
< 50	Cc1nc(-c2nnn(C)c2NC(=O)O[C@H](C)c2ccccc2Cl)ccc1NC(=O)C1C(C(=O)O)C1(F)F (single isomer, unassigned) [Compound 32]
< 50	Cc1nc(-c2onc(C)c2NC(=O)O[C@H](C)c2ccccc2Cl)ccc1NC(=O)[C@H]1[C@H](C(=O)O)C1(F)F [Compound 2, (1R,3R)-3-((6-(4-((((R)-1-(2-chlorophenyl)ethoxy)carbonyl)amino)-3-methylisoxazol-5-yl)-2-methylpyridin-3-yl)carbamoyl)-2,2-difluorocyclopropane-1-carboxylic acid]
< 50	Cc1nc(-c2onc(C)c2Nc2cncc(OC(C)C)n2)ccc1NC(=O)C1C(C(=O)O)C1(F)F (single isomer, unassigned; diastereomer 2) [Compound 11]
< 50	Cc1nc(-c2onc(C)c2NC(=O)O[C@H](C)c2ccccc2Cl)ccc1NC(=O)[C@@H]1[C@@H](C(=O)O)C1(F)F [Compound 1, (1S,3S)-3-((6-(4-((((R)-1-(2-chlorophenyl)ethoxy)carbonyl)amino)-3-methylisoxazol-5-yl)-2-methylpyridin-3-yl)carbamoyl)-2,2-difluorocyclopropane-1-carboxylic acid]
< 50	Cc1nc(-c2snc(C)c2NC(=O)O[C@H](C)c2ccccc2Cl)ccc1NC(=O)C1C(C(=O)O)C1(F)F (single isomer, unassigned; diastereomer 1) [Compound 31]
< 50	Cc1nc(-c2onc(C)c2NC(=O)O[C@H](C)c2ccccc2Cl)ccc1NC(=O)C1C(c2nnn[nH]2)C1(F)F (mixture of isomers) [Compound 14, (R)-1-(2-chlorophenyl)ethyl (5-(5-(2,2-difluoro-3-(1H-tetrazol-5-yl)cyclopropane-1-carboxamido)-6-methylpyridin-2-y1)-3-methylisoxazol-4-yl)carbamate, mix of Trans diastereomers]
< 50	Cc1nc(-c2onc(C)c2NC(=O)O[C@H](C)c2ccccc2Cl)ccc1NC(=O)C1C(C(=O)O)C1(F)F (stereo partly drawn) [Compound 4, 3-((6-(4-((((R)-1-(2-chlorophenyl)ethoxy)carbonyl)amino)-3-methylisoxazol-5-yl)-2-methylpyridin-3-yl)carbamoyl)-2,2-difluorocyclopropane-1-carboxylic acid]
50 to 100	Cc1nc(-c2onc(C)c2NC(=O)O[C@H](C)c2ccccc2Cl)ccc1CNC(=O)C1C(C(=O)O)C1(F)F (mixture of isomers) [Compound 16, 3-(((6-(4-((((R)-1-(2-chlorophenyl)ethoxy)carbonyl)amino)-3-methylisoxazol-5-yl)-2-methylpyridin-3-yl)methyl)carbamoyl)-2,2-difluorocyclopropane-1-carboxylic acid, mix of Cis diastereomers]
100 to 200	Cc1nc(-c2sccc2NC(=O)O[C@H](C)c2ccccc2Cl)ccc1NC(=O)C1C(C(=O)O)C1(F)F (single isomer, unassigned; diastereomer 2) [Compound 30]
